PubChem BioAssay (NCI)
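96-well plates; 48 h exposure; 5 concentrations. Endpoints by linear interpolation between flanking doses. Not reached: highest tested concentration assigned. GI50: concentration for 50% inhibition of growth. TGI is the concentration that stops growth completely.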

Tests used:
Test in all cases: NCI anticancer screen, dose series, 48 h
786-0 renal = tested on: 786-0 renal
A498 renal = tested on: A498 renal
A549 NSCLC = tested on: A549 NSCLC
ACHN renal = tested on: ACHN renal
BT-549 breast = tested on: BT-549 breast
CAKI-1 renal = tested on: CAKI-1 renal
COLO 205 colon = tested on: COLO 205 colon
DU-145 prostate = tested on: DU-145 prostate
EKVX NSCLC = tested on: EKVX NSCLC
HCC-2998 colon = tested on: HCC-2998 colon
HCT-15 colon = tested on: HCT-15 colon
HOP-62 NSCLC = tested on: HOP-62 NSCLC
HOP-92 NSCLC = tested on: HOP-92 NSCLC
HS 578T breast = tested on: HS 578T breast
HT29 colon = tested on: HT29 colon
KM12 colon = tested on: KM12 colon
MDA-MB-231 breast = tested on: MDA-MB-231 breast
MDA-MB-435 = tested on: MDA-MB-435
NCI-H23 lung = tested on: NCI-H23 lung
NCI-H460 lung = tested on: NCI-H460 lung
NCI/ADR-RES ovarian = tested on: NCI/ADR-RES ovarian
OVCAR-3 ovarian = tested on: OVCAR-3 ovarian
OVCAR-4 ovarian = tested on: OVCAR-4 ovarian
OVCAR-5 ovarian = tested on: OVCAR-5 ovarian
PC-3 prostate = tested on: PC-3 prostate
RXF 393 renal = tested on: RXF 393 renal
SF-268 CNS = tested on: SF-268 CNS
SF-295 CNS = tested on: SF-295 CNS
SF-539 CNS = tested on: SF-539 CNS
SK-MEL-2 melanoma = tested on: SK-MEL-2 melanoma
SK-MEL-5 melanoma = tested on: SK-MEL-5 melanoma
SK-OV-3 ovarian = tested on: SK-OV-3 ovarian
SN12C renal = tested on: SN12C renal
SNB-19 CNS = tested on: SNB-19 CNS
SNB-75 CNS = tested on: SNB-75 CNS
SW-620 colon = tested on: SW-620 colon
T-47D breast = tested on: T-47D breast
TK-10 renal = tested on: TK-10 renal
U251 CNS = tested on: U251 CNS
UACC-257 melanoma = tested on: UACC-257 melanoma
UACC-62 melanoma = tested on: UACC-62 melanoma
UO-31 renal = tested on: UO-31 renal
CCRF-CEM leukemia = tested on: CCRF-CEM leukemia
HCT-116 colon = tested on: HCT-116 colon
HL-60(TB) leukemia = tested on: HL-60(TB) leukemia
K-562 leukemia = tested on: K-562 leukemia
MCF7 breast = tested on: MCF7 breast
MOLT-4 leukemia = tested on: MOLT-4 leukemia
NCI-H226 lung = tested on: NCI-H226 lung
OVCAR-8 ovarian = tested on: OVCAR-8 ovarian
RPMI-8226 leukemia = tested on: RPMI-8226 leukemia
SR leukemia = tested on: SR leukemia
IGROV1 ovarian = tested on: IGROV1 ovarian
LOX IMVI melanoma = tested on: LOX IMVI melanoma
M14 melanoma = tested on: M14 melanoma
MALME-3M melanoma = tested on: MALME-3M melanoma
SK-MEL-28 melanoma = tested on: SK-MEL-28 melanoma

CCn1cc(C(=O)N/N=C/c2cccs2)c(=O)c2cc(F)c(N3CCNC(C)C3)c(F)c21 (centres undefined)
GI50 (786-0 renal): 1.8 µM
TGI (786-0 renal): 3.38 µM
GI50 (A498 renal): 3.64 µM
TGI (A498 renal): 21.1 µM
GI50 (A549 NSCLC): 1.8 µM
TGI (A549 NSCLC): 3.37 µM
GI50 (ACHN renal): 1.67 µM
TGI (ACHN renal): 3.04 µM
GI50 (BT-549 breast): 12.3 µM
TGI (BT-549 breast): 36.9 µM
GI50 (CAKI-1 renal): 1.66 µM
TGI (CAKI-1 renal): 3.03 µM
GI50 (COLO 205 colon): 1.78 µM
TGI (COLO 205 colon): 3.52 µM
GI50 (DU-145 prostate): 1.67 µM
TGI (DU-145 prostate): 3.03 µM
GI50 (EKVX NSCLC): 1.47 µM
TGI (EKVX NSCLC): 2.93 µM
GI50 (HCC-2998 colon): 1.8 µM
TGI (HCC-2998 colon): 3.44 µM
GI50 (HCT-15 colon): 1.47 µM
TGI (HCT-15 colon): 2.82 µM
GI50 (HOP-62 NSCLC): 1.59 µM
TGI (HOP-62 NSCLC): 3.17 µM
GI50 (HOP-92 NSCLC): 1.09 µM
TGI (HOP-92 NSCLC): 2.38 µM
GI50 (HS 578T breast): 14.1 µM
TGI (HS 578T breast): 35.9 µM
GI50 (HT29 colon): 1.67 µM
TGI (HT29 colon): 3.12 µM
GI50 (KM12 colon): 1.73 µM
TGI (KM12 colon): 3.27 µM
GI50 (MDA-MB-231 breast): 1.52 µM
TGI (MDA-MB-231 breast): 2.85 µM
GI50 (MDA-MB-435): 1.78 µM
TGI (MDA-MB-435): 3.24 µM
GI50 (NCI-H23 lung): 1.79 µM
TGI (NCI-H23 lung): 3.47 µM
GI50 (NCI-H460 lung): 1.75 µM
TGI (NCI-H460 lung): 3.24 µM
GI50 (NCI/ADR-RES ovarian): 1.8 µM
TGI (NCI/ADR-RES ovarian): 3.48 µM
GI50 (OVCAR-3 ovarian): 1.8 µM
TGI (OVCAR-3 ovarian): 3.35 µM
GI50 (OVCAR-4 ovarian): 1.96 µM
TGI (OVCAR-4 ovarian): 3.97 µM
GI50 (OVCAR-5 ovarian): 1.59 µM
TGI (OVCAR-5 ovarian): 2.97 µM
GI50 (PC-3 prostate): 1.45 µM
TGI (PC-3 prostate): 2.84 µM
GI50 (RXF 393 renal): 1.47 µM
TGI (RXF 393 renal): 3 µM
GI50 (SF-268 CNS): 1.73 µM
TGI (SF-268 CNS): 3.44 µM
GI50 (SF-295 CNS): 1.85 µM
TGI (SF-295 CNS): 3.45 µM
GI50 (SF-539 CNS): 1.62 µM
TGI (SF-539 CNS): 3.07 µM
GI50 (SK-MEL-2 melanoma): 1.96 µM
TGI (SK-MEL-2 melanoma): 3.95 µM
GI50 (SK-MEL-5 melanoma): 1.78 µM
TGI (SK-MEL-5 melanoma): 3.19 µM
GI50 (SK-OV-3 ovarian): 1.79 µM
TGI (SK-OV-3 ovarian): 3.38 µM
GI50 (SN12C renal): 1.55 µM
TGI (SN12C renal): 2.88 µM
GI50 (SNB-19 CNS): 1.61 µM
TGI (SNB-19 CNS): 2.96 µM
GI50 (SNB-75 CNS): 1.47 µM
TGI (SNB-75 CNS): 2.83 µM
GI50 (SW-620 colon): 1.71 µM
TGI (SW-620 colon): 3.17 µM
GI50 (T-47D breast): 1.68 µM
TGI (T-47D breast): 3.45 µM
GI50 (TK-10 renal): 1.72 µM
TGI (TK-10 renal): 3.25 µM
GI50 (U251 CNS): 1.67 µM
TGI (U251 CNS): 3.06 µM
GI50 (UACC-257 melanoma): 1.8 µM
TGI (UACC-257 melanoma): 3.43 µM
GI50 (UACC-62 melanoma): 1.61 µM
TGI (UACC-62 melanoma): 2.96 µM
GI50 (UO-31 renal): 1.52 µM
TGI (UO-31 renal): 2.96 µM

COCCNCc1ccc(-c2cc3nccc(Oc4ccc(NC(=O)C5(C(=O)Nc6ccc(F)cc6)CC5)cc4F)c3s2)nc1
GI50 (A549 NSCLC): 1.71 µM
TGI (A549 NSCLC): 4.15 µM
GI50 (CAKI-1 renal): 2.08 µM
TGI (CAKI-1 renal): 4.83 µM
GI50 (CCRF-CEM leukemia): 2.55 µM
TGI (CCRF-CEM leukemia): 7.06 µM
GI50 (COLO 205 colon): 1.55 µM
TGI (COLO 205 colon): 3.68 µM
GI50 (DU-145 prostate): 2.06 µM
TGI (DU-145 prostate): 4.51 µM
GI50 (HCT-116 colon): 1.78 µM
TGI (HCT-116 colon): 3.92 µM
GI50 (HCT-15 colon): 1.68 µM
TGI (HCT-15 colon): 4.57 µM
GI50 (HL-60(TB) leukemia): 2.29 µM
TGI (HL-60(TB) leukemia): 5.12 µM
GI50 (HOP-62 NSCLC): 1.57 µM
TGI (HOP-62 NSCLC): 3.43 µM
GI50 (HS 578T breast): 1.06 µM
TGI (HS 578T breast): 4 µM
GI50 (HT29 colon): 0.912 µM
TGI (HT29 colon): 2.89 µM
GI50 (K-562 leukemia): 0.252 µM
TGI (K-562 leukemia): 1.83 µM
GI50 (KM12 colon): 0.0411 µM
TGI (KM12 colon): 2.95 µM
GI50 (MCF7 breast): 1.22 µM
TGI (MCF7 breast): 3.58 µM
GI50 (MDA-MB-435): 1.31 µM
TGI (MDA-MB-435): 2.68 µM
GI50 (MOLT-4 leukemia): 1.46 µM
TGI (MOLT-4 leukemia): 4.26 µM
GI50 (NCI-H226 lung): 1.89 µM
TGI (NCI-H226 lung): 4.73 µM
GI50 (NCI-H460 lung): 1.66 µM
TGI (NCI-H460 lung): 3.4 µM
GI50 (NCI/ADR-RES ovarian): 1.74 µM
TGI (NCI/ADR-RES ovarian): 4.25 µM
GI50 (OVCAR-3 ovarian): 2.2 µM
TGI (OVCAR-3 ovarian): 4.82 µM
GI50 (OVCAR-4 ovarian): 1.67 µM
TGI (OVCAR-4 ovarian): 4.79 µM
GI50 (OVCAR-8 ovarian): 2.11 µM
TGI (OVCAR-8 ovarian): 5.13 µM
GI50 (PC-3 prostate): 1.81 µM
TGI (PC-3 prostate): 5 µM
GI50 (RPMI-8226 leukemia): 2.05 µM
TGI (RPMI-8226 leukemia): 5.07 µM
GI50 (SK-MEL-2 melanoma): 1.82 µM
TGI (SK-MEL-2 melanoma): 3.6 µM
GI50 (SK-OV-3 ovarian): 1.93 µM
TGI (SK-OV-3 ovarian): 3.78 µM
GI50 (SNB-75 CNS): 1.03 µM
TGI (SNB-75 CNS): 2.26 µM
GI50 (SR leukemia): 1.96 µM
TGI (SR leukemia): 6.04 µM
GI50 (SW-620 colon): 1.26 µM
TGI (SW-620 colon): 3.27 µM
GI50 (T-47D breast): 2.01 µM
TGI (T-47D breast): 6.29 µM
GI50 (TK-10 renal): 2.21 µM
TGI (TK-10 renal): 4.43 µM
GI50 (U251 CNS): 1.89 µM
TGI (U251 CNS): 3.79 µM
GI50 (UACC-257 melanoma): 1.59 µM
TGI (UACC-257 melanoma): 3.33 µM
GI50 (UACC-62 melanoma): 1.89 µM
TGI (UACC-62 melanoma): 4.66 µM

CC(Cc1ccccc1)N(C)Cc1nc(C2CCC([N+](=O)[O-])O2)no1 (centres undefined)
TGI (786-0 renal): 24.6 µM
TGI (A549 NSCLC): 27.4 µM
TGI (CCRF-CEM leukemia): 44.8 µM
TGI (COLO 205 colon): 12.9 µM
TGI (DU-145 prostate): 24.9 µM
TGI (EKVX NSCLC): 94.4 µM
TGI (HCC-2998 colon): 14.3 µM
TGI (HCT-116 colon): 25.3 µM
TGI (HCT-15 colon): 7.07 µM
TGI (HOP-62 NSCLC): 19.7 µM
TGI (HOP-92 NSCLC): 51.2 µM
TGI (HS 578T breast): 17.9 µM
TGI (HT29 colon): 11.5 µM
TGI (IGROV1 ovarian): 25.5 µM
TGI (KM12 colon): 21 µM
TGI (LOX IMVI melanoma): 11.6 µM
TGI (M14 melanoma): 19.1 µM
TGI (MALME-3M melanoma): 25.6 µM
TGI (MCF7 breast): 15.5 µM
TGI (MDA-MB-231 breast): 9.93 µM
TGI (MDA-MB-435): 20.4 µM
TGI (MOLT-4 leukemia): > 100 µM
TGI (NCI-H226 lung): 32.4 µM
TGI (NCI-H23 lung): 19.4 µM
TGI (NCI/ADR-RES ovarian): 82.5 µM
TGI (OVCAR-4 ovarian): 21.3 µM
TGI (OVCAR-5 ovarian): 29 µM
TGI (OVCAR-8 ovarian): 59.1 µM
TGI (RPMI-8226 leukemia): 72.8 µM
TGI (RXF 393 renal): 37.6 µM
TGI (SF-268 CNS): > 100 µM
TGI (SF-295 CNS): 20.9 µM
TGI (SF-539 CNS): 8.38 µM
TGI (SK-MEL-28 melanoma): 25.6 µM
TGI (SK-MEL-5 melanoma): 24.3 µM
TGI (SK-OV-3 ovarian): 84 µM
TGI (SN12C renal): 11 µM
TGI (SNB-19 CNS): 25.2 µM
TGI (SNB-75 CNS): 23.1 µM
TGI (SR leukemia): > 100 µM
TGI (SW-620 colon): 14.9 µM
TGI (T-47D breast): 66.1 µM
TGI (TK-10 renal): 28.4 µM
TGI (U251 CNS): 22.9 µM
TGI (UACC-257 melanoma): 21.2 µM
TGI (UACC-62 melanoma): 22.1 µM
TGI (UO-31 renal): 20.4 µM
